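Method: 48-hour compound exposure of cells in 96-well plates, five concentrations, linear interpolation of endpoints. TGI is the concentration that stops growth completely.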
What was measured:
Test in all cases: growth of human tumour cells (NCI), 48 h
A549 NSCLC = system: A549 NSCLC
DU-145 prostate = system: DU-145 prostate
HCC-2998 colon = system: HCC-2998 colon
NCI-H460 lung = system: NCI-H460 lung
OVCAR-5 ovarian = system: OVCAR-5 ovarian
PC-3 prostate = system: PC-3 prostate
TK-10 renal = system: TK-10 renal
UACC-257 melanoma = system: UACC-257 melanoma
UACC-62 melanoma = system: UACC-62 melanoma
UO-31 renal = system: UO-31 renal

| Structure (SMILES) | TGI (A549 NSCLC) | TGI (DU-145 prostate) | TGI (HCC-2998 colon) | TGI (NCI-H460 lung) | TGI (OVCAR-5 ovarian) | TGI (PC-3 prostate) | TGI (TK-10 renal) | TGI (UACC-257 melanoma) | TGI (UACC-62 melanoma) | TGI (UO-31 renal) |
| --- | --- | --- | --- | --- | --- | --- | --- | --- | --- | --- |
| CCCCc1ccc(Nc2ncc3ncn(COCCO)c3n2)cc1 | > 100 µM | > 100 µM | 40.7 µM | 57.9 µM | > 100 µM | > 100 µM | > 100 µM | 72.5 µM | 77.7 µM | 59.1 µM |
| CCOC(=O)C1CC(C(=O)c2ccccc2)N2c3ccccc3-c3ccccc3C12 (stereo not given) | > 100 µM | > 100 µM | > 100 µM | > 100 µM | > 100 µM | > 100 µM | > 100 µM | > 100 µM | > 100 µM | > 100 µM |
| Cc1nc2cc(F)c(F)cc2[nH]c1=O | > 100 µM | > 100 µM | > 100 µM | > 100 µM | > 100 µM | > 100 µM | > 100 µM | > 100 µM | > 100 µM | > 100 µM |
| COC(C/C(=C/CO[Si](C(C)C)(C(C)C)C(C)C)C(=O)N(COCC[Si](C)(C)C)c1ccccc1I)OC | > 100 µM | > 100 µM | > 100 µM | > 100 µM | 87.2 µM | 83.6 µM | > 100 µM | 69.9 µM | 50.7 µM | > 100 µM |
| CCOC(=O)/C(C(N)=O)=C(\O)C(=O)/C(Br)=C(\O)c1ccccc1 | 43.5 µM | 39.7 µM | 36.6 µM | 56.1 µM | 37.5 µM | 31.7 µM | 33.2 µM | 31.8 µM | 33.3 µM | 39.6 µM |
| COc1cc(/C=C2\CC/C(=C\c3cc(OC)c(O)c(OC)c3)C2=O)cc(OC)c1O | > 62.1 µM | 16.5 µM | 3.38 µM | > 100 µM | > 100 µM | 19.7 µM | > 100 µM | > 100 µM | 3.8 µM | > 26.7 µM |
| N#CC(CCN1CCC(Nc2ccccc2)(c2nnnn2C2CCCCC2)CC1)(c1ccccc1)c1ccccc1 | > 100 µM | > 100 µM | > 100 µM | > 100 µM | > 100 µM | > 100 µM | > 100 µM | > 100 µM | > 100 µM | > 100 µM |
| O=c1[nH]nc(-c2ccccc2)n1/N=C/c1ccc([N+](=O)[O-])o1 | 21.9 µM | 17.5 µM | 12.4 µM | > 22.6 µM | 31.5 µM | > 30.3 µM | > 100 µM | 11.9 µM | 11.2 µM | 12.9 µM |
| C1=C(c2ccccc2)C(N2CCOCC2)Oc2ccccc21 (stereo not given) | > 100 µM | > 100 µM | > 100 µM | > 100 µM | > 100 µM | > 100 µM | > 100 µM | > 100 µM | > 100 µM | > 100 µM |
| Cc1c(C(=O)c2ccc(N)c3ccccc23)c2ccccc2n1CCN1CCOCC1 | 99.1 µM | > 95.2 µM | 59.9 µM | > 77.1 µM | 98.2 µM | > 100 µM | > 82.2 µM | 58.5 µM | 40.6 µM | 86.6 µM |
| COc1ccccc1-n1c(=O)n(C)c(=O)n1C(C)(C)C | > 100 µM | > 100 µM | > 100 µM | > 100 µM | > 100 µM | > 100 µM | > 100 µM | > 100 µM | > 100 µM | > 100 µM |
| CC(C)(C)OC(=O)N/C(C=O)=C\C1CCCCC1 | > 100 µM | 95.9 µM | 37.3 µM | 40.6 µM | 42.3 µM | 47.4 µM | 32.9 µM | 48 µM | 30.7 µM | 30.2 µM |
| CSC(=S)Nc1cc(C)cc(C)n1 | > 31.6 µM | > 31.6 µM | > 31.6 µM | > 31.6 µM | > 31.6 µM | > 31.6 µM | > 31.6 µM | > 31.6 µM | > 31.6 µM | > 31.6 µM |
| C[C@]12CC[C@H]3[C@@H](CCC4=CC(=O)C=C[C@@]43OC(=O)C(F)(F)F)[C@@H]1CCC2=O | > 100 µM | > 100 µM | > 100 µM | > 100 µM | > 100 µM | > 100 µM | > 100 µM | > 100 µM | > 100 µM | > 100 µM |
| CC1CC[C@@]2(OC1)O[C@H]1[C@H](O)[C@H]3[C@@H]4CC[C@H]5C[C@@H](OC6OC(CO)C(OC7OC(CO)C(O)C(OC8OCC(O)C(O)C8O)C7OC7OC(CO)C(O)C(O)C7OC7OC(CO)C(O)C(O)C7O)C(O)C6O)[C@H](O)C[C@]5(C)[C@H]4CC[C@]3(C)[C@H]1[C@@H]2C (stereo not given in full) | > 10 µM | > 10 µM | > 10 µM | > 10 µM | > 10 µM | 7.84 µM | > 10 µM | > 10 µM | > 10 µM | > 10 µM |
| COc1ccc(C#Cn2nnc3ccccc32)cc1 | > 100 µM | > 100 µM | 82 µM | > 100 µM | > 100 µM | > 100 µM | > 100 µM | > 100 µM | > 100 µM | 4.47 µM |
| O=C(/C(=C(/O)c1ccccc1)c1nc2ccccc2sc1=O)c1ccccc1 | > 100 µM | > 100 µM | 59.7 µM | 30.5 µM | > 100 µM | > 100 µM | > 100 µM | 46.2 µM | > 100 µM | 74.4 µM |

Source: PubChem BioAssay (NCI)
